Results: article PMC6347603, “N^+-C-H···O Hydrogen bonds in protein-ligand complexes” (Scientific Reports, 2019)
pIC50, pKd: −log10 of the molar value.

Experiments:
G9a-like protein (GLP) = biological target: T1, G9a-like protein (GLP) (Homo sapiens, UniProt Q9H9B1); experiment: GLP activity assay (GLP Chemiluminescent Assay Kit); type: biochemical; conditions: for pIC50: 2 μM SAM, 40 ng GLP, 120 min, room temperature, mean values of at least three experiments, read-out: In vitro GLP-inhibitory activity IC50
T1 construct: purchased BPS Bioscience, Inc. 53007
T1 sequence (Q9H9B1 1-1298): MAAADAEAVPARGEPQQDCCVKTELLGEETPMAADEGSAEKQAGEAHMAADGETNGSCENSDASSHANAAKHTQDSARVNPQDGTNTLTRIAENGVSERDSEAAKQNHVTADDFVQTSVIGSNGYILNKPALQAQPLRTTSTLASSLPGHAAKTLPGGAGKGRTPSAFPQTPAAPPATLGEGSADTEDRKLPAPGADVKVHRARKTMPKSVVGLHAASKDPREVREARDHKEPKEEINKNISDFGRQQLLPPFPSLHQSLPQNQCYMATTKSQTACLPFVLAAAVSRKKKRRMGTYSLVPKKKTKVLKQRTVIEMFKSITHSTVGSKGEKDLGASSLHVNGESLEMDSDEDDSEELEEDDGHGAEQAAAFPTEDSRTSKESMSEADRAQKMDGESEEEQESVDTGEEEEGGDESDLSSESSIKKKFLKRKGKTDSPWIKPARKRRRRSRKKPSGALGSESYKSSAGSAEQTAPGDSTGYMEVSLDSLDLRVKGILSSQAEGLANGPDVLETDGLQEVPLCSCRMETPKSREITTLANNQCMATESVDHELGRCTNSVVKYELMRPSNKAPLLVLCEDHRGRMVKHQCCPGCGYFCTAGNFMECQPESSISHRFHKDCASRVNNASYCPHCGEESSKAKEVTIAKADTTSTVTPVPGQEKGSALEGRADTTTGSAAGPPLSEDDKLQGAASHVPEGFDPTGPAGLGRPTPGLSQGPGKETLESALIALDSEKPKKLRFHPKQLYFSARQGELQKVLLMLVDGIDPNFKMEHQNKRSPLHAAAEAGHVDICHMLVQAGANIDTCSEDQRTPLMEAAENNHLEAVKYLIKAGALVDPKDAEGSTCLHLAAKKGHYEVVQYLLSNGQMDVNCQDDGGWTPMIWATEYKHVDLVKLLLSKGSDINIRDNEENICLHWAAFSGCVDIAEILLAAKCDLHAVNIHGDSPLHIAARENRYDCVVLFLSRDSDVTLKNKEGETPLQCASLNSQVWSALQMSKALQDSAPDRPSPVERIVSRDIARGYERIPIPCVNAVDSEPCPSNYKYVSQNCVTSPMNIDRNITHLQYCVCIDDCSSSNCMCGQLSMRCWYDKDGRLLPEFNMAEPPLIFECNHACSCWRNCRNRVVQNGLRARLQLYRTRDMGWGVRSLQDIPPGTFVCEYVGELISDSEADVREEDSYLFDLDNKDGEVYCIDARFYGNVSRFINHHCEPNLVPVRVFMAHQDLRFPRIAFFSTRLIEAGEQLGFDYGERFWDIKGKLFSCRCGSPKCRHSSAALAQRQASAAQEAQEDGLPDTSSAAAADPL
Method: The GLP activity assay was carried out using a GLP Chemiluminescent Assay Kit (Catalog #53007, BPS Bioscience, Inc.). Microwells were rehydrated by adding 200 μL of tris buffered saline with Tween 20 (TBS-T: 1x TBS, pH = 8.0, containing 0.05% Tween-20) to every well, followed by incubation at room temperature for 45 minutes. After removing TBS-T, the inhibitors were incubated in the presence of 2 μM SAM and 40 ng of GLP in the supplied buffer on the microwells of (120 min, room temperature, total volume: 50 μL). After the enzymatic reaction, every well was washed three times with TBS-T (100 μL) and blocked for 10 min with blocking buffer. Then, 100 μL of primary anti-body solution (1:400 dilution) were added to the microwells, followed by incubation (2 h). The wells were probed with the primary antibody, washed three times with TBS-T (100 μL), incubated (2 h, room temperature) with sheep secondary anti-body (1:1000 diluted), and again washed three times with TBS-T (100 μL). The chemiluminescence of the wells, to which detection reagents were added, was measured on a chemiluminescence reader (ARVO X3 Multilabel Plate Reader), and the values of % inhibition were calculated from the chemiluminescence readings of inhibited wells relative to those of control wells.

GLP recombinant protein = biological target: T2, GLP recombinant protein (Homo sapiens, UniProt Q9H9B1); experiment: Isothermal titration calorimetry (ITC) of GLP inhibitors binding to GLP; conditions: 25 °C, 20 mM Tris pH 8.0, 150 mM NaCl, 2% DMSO, 50 μM AdoMet; for pKd: 10 μM GLP, 100 μM inhibitor, one-site binding model, read-out: dissociation constant KD (ITC); for −TΔS (ITC): calculated from ΔG = ΔH − TΔS
T2 construct: purchased Active Motif, Inc. 31920
T2 sequence (Q9H9B1 1-1298): T1 sequence (Q9H9B1 1-1298)
Method: A GLP recombinant protein solution (Catalog #31920, Active Motif, Inc.) was concentrated by ultrafiltration and the buffer was replaced with test buffer (20 mM Tris pH 8.0, 150 mM NaCl, 2% DMSO and 50 μM AdoMet). ITC measurements of GLP inhibitors binding to the GLP were recorded at 25 °C using a MicroCal PEAQ-ITC microcalorimeter (Malvern Panalytical) in the test buffer. The titrations were performed using 10 μM GLP solution in the sample cell and 100 μM inhibitor solution in the syringe. A typical experiment consisted of 19 injections under the following parameters: one injection of 0.4 μL followed by 18 injections of 2.0 μL; 150 s spacing between injections; 750 rpm stirring speed; and reference power set to 5 μcal s^−1. The heat of dilution of the ligand into the buffer measured independently was essentially similar to the heat signal obtained at the end of the titration; so the signal of the last injection was used as the background heat signal. The experimental data were analyzed using the MicroCal PEAQ-ITC Analysis software (Malvern Panalytical), and fitted using the one-site binding model. Values of ΔG, KD, and −TΔS were calculated using the thermodynamic relationships, ΔG = −RT lnKa, KD = 1/Ka, and ΔG = ΔH − TΔS.
Figure S20. Determination of the disassociation constant and thermodynamic parameters of 14a–14c by isothermal titration calorimetry (ITC). (A–C) The binding of (A) 14a, (B) 14b and (C) 14c to GLP are measured by ITC. The titrations were conducted in buffer containing 20 mM Tris pH 8.0, 150 mM NaCl, 2% DMSO and 50 μM AdoMet. The sample chamber and syringe were filled with 10 μM GLP and 100 μM inhibitor, respectively. (D) Summary of disassociation constant and thermodynamic parameter profiles of 14a–14c.

pIC50 (G9a-like protein (GLP)) | ΔH (ITC) (GLP recombinant protein) | pKd (GLP recombinant protein) | −TΔS (ITC) (GLP recombinant protein) | GLP inhibition (result in words) (G9a-like protein (GLP); up to 3 μM) | SMILES
6.81 | -10.7 kcal/mol | 6.77 | 1.42 kcal/mol | – | COc1cc2nc(NCCCN(C)C)nc(NC3CCN(Cc4ccccc4)CC3)c2cc1OC [Compound 14a]
6.18 | -8.58 kcal/mol | 6.21 | 0.10 kcal/mol | – | CNCCCNc1nc(NC2CCN(Cc3ccccc3)CC2)c2cc(OC)c(OC)cc2n1 [Compound 14b, N^4-(1-Benzylpiperidin-4-yl)-6,7-dimethoxy-N^2-[3-(methylamino)propyl]quinazoline-2,4-diamine]
5.84 | -7.04 kcal/mol | 6.03 | -1.19 kcal/mol | – | COc1cc2nc(NCCCN)nc(NC3CCN(Cc4ccccc4)CC3)c2cc1OC [Compound 14c]
– | – | – | – | did not show any GLP inhibition | COc1cc2nc(NCCCC(C)C)nc(NC3CCN(Cc4ccccc4)CC3)c2cc1OC [Compound 14d]
